According to ChEMBL document CHEMBL6115042, “Hydroquinazoline Derivatives as Novel Natriuretic Peptide Receptor 1 (NPR1) Activators” (ACS Med Chem Lett, 2025):

Assays:
[1] = Activation of monkey NPR1 expressed in CHO-K1 cells assessed as increase in cGMP production measured after 30 mins by HTRF assay; type: cell-based; details: Macaca mulatta, CHO-K1, 0.5 h
[2] = target: T1, Atrial natriuretic peptide receptor 1 (Homo sapiens, UniProt P16066); assay: Activation of human NPR1 expressed in CHO-K1 cells assessed as increase in cGMP production measured after 30 mins by HTRF assay; type: cell-based
T1 sequence (P16066 whole entry): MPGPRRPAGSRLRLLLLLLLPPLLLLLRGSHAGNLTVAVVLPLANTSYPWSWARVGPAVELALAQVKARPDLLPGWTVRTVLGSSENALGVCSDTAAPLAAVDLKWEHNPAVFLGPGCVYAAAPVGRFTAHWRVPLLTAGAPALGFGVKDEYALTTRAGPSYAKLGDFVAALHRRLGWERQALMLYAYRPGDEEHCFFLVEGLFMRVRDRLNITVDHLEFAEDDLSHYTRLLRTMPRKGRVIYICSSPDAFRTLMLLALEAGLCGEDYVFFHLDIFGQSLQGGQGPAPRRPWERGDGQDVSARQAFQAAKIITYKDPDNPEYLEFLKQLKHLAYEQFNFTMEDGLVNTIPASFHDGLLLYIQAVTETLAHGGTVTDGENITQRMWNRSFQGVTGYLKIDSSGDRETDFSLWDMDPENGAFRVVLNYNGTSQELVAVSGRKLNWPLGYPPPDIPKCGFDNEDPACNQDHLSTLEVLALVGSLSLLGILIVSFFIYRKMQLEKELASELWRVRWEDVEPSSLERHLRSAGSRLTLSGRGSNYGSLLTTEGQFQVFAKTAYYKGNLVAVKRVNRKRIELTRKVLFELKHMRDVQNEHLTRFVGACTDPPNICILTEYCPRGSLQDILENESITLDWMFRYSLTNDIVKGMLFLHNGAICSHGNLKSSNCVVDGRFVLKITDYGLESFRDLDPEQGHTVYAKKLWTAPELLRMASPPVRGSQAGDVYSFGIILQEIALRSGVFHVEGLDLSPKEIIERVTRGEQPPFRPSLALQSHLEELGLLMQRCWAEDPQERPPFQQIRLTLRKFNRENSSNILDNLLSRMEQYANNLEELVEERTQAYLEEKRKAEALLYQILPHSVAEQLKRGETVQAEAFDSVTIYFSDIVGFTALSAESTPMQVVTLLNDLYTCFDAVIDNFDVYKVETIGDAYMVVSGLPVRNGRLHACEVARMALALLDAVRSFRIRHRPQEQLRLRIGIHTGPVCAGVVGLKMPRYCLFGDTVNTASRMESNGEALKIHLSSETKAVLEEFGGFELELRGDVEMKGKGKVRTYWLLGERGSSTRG

| Structure (SMILES) | AC50 [2] [nM] | AC50 [1] [nM] |
| --- | --- | --- |
| CC[C@@H](N(C)c1nc2c(c(N[C@@H](CN3CCCCCC3)c3cnn(C)c3)n1)C[C@H](c1cccc(F)c1)CC2)C12CC(C(=O)O)(C1)C2 | – | 10 |
| CC[C@H]([C@H]1CC[C@H](C(=O)O)CC1)N(C)c1nc2c(c(N[C@@H](CN3C4CCCC3CC4)c3ccn(C)n3)n1)C[C@H](c1cccc(F)c1)CC2 | – | 272 |
| CC[C@@H](Nc1nc2c(c(N[C@@H](CN3CCC[C@H](C)C3)c3cnn(C)c3)n1)C[C@](C)(c1cccc(F)c1)CC2)C1CCC(C(=O)O)CC1 (some centres undefined) | 42 | 44 |
| CC[C@@H](Nc1nc2c(c(N[C@@H](CN3C4CCCC3CC4)c3ccccc3)n1)C[C@H](c1ccccc1)CC2)[C@H]1CC[C@H](C(=O)O)CC1 | – | 138 |

More lines, main results first:

| AC50 [2] [nM] | Structure (SMILES) | AC50 [1] [nM] |
| --- | --- | --- |
| 72 | CC[C@@H](Nc1nc2c(c(N[C@@H](CN3CCC[C@H](C)C3)c3cnn(C)c3)n1)C[C@](C)(c1ccc(F)cc1)CC2)C1CCC(C(=O)O)CC1 (some centres undefined) | 68 |
| 66 | CC[C@@H](Nc1nc2c(c(N[C@@H](CN3CCCCCC3)c3cnn(C)c3)n1)C[C@H](c1cccc(F)c1)CC2)C1CCC(C(=O)O)CC1 (some centres undefined) | 45 |
